In the assay the target is Human Factor D (Homo sapiens (Human), UniProt P00746). The experiment in a line: Human Factor D Assay. The assay is classed as biochemical. The method, boiled down: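 Thioester substrate Z-L-Lys-SBz (100 μM) with Ellman's reagent DTNB (100 μM) reports activity of 80 nM human serum-derived enzyme, kinetically at 405 nm over 30 min. Compound preincubated 5 min, room temperature, pH 7.5 Tris/1 M NaCl; IC50 by nonlinear fit of rates.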

Setting [1] is: Factor D inhibition, assay of Example 10, read-out: IC5 (Stars).

Like-named read-outs stand apart in the source and are kept apart here.

From patent publication US11084800B2 (Achillion Pharmaceuticals, Inc., priority 2017, dated 2021) come the findings set out here.

Chain of Human Factor D (P00746 26-253): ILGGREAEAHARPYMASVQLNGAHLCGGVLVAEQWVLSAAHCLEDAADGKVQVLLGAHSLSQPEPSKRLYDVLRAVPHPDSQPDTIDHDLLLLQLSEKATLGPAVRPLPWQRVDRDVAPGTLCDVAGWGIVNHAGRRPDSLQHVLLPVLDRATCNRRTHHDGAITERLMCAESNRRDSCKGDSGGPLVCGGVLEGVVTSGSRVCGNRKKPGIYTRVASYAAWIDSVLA

For `CC(=O)c1nn(CC(=O)N2[C@H](C(=O)Nc3cc(CC(C)C)cc(Br)n3)C[C@@]3(C)C[C@@H]23)c2ccc(-c3cnc(C)nc3)cc12` [Compound 542, (1R,3S,5R)-2-(2-(3-acetyl-5-(2-methylpyrimidin-5-yl)-1H-indazol-1-yl)acetyl)-N-(6-bromo-4-isobutylpyridin-2-yl)-5-methyl-2-azabicyclo[3.1.0]hexane-3-carboxamide], the IC50 under setting [1] was less than 1000 nM.

Regarding `CC(=O)c1nn(CC(=O)N2[C@H](C(=O)Nc3cc(C#N)cc(Br)n3)C[C@@]3(C)C[C@@H]23)c2ccc(-c3cnc(C)nc3)cc12` [Compound 543, (1R,3S,5R)-2-(2-(3-acetyl-5-(2-methylpyrimidin-5-yl)-1H-indazol-1-yl)acetyl)-N-(6-bromo-4-cyanopyridin-2-yl)-5-methyl-2-azabicyclo[3.1.0]hexane-3-carboxamide], the IC50 under setting [1] was less than 1000 nM.

As to `CC(=O)c1nn(CC(=O)N2[C@H](C(=O)Nc3cc(-c4nnn[nH]4)cc(Br)n3)C[C@@]3(C)C[C@@H]23)c2ccc(-c3cnc(C)nc3)cc12` [Compound 544, (1R,3S,5R)-2-(2-(3-acetyl-5-(2-methylpyrimidin-5-yl)-1H-indazol-1-yl)acetyl)-N-(6-bromo-4-(1H-tetrazol-5-yl)pyridin-2-yl)-5-methyl-2-azabicyclo[3.1.0]hexane-3-carboxamide], the IC50 under setting [1] was less than 1000 nM.

In the case of `CC(=O)c1nn(CC(=O)N2[C@H](C(=O)Nc3cc(CCC(C)C)cc(Br)n3)C[C@@]3(C)C[C@@H]23)c2ccc(-c3cnc(C)nc3)cc12` [Compound 545, (1R,3S,5R)-2-(2-(3-acetyl-5-(2-methylpyrimidin-5-yl)-1H-indazol-1-yl)acetyl)-N-(6-bromo-4-isopentylpyridin-2-yl)-5-methyl-2-azabicyclo[3.1.0]hexane-3-carboxamide], under setting [1], the IC50 is less than 1000 nM.

Take `COCc1cc(Br)nc(NC(=O)[C@@H]2C[C@@]3(C)C[C@H]3N2C(=O)Cn2nc(C(C)=O)c3cc(-c4cnc(C)nc4)ccc32)c1` [Compound 546, (1R,3S,5R)-2-(2-(3-acetyl-5-(2-methylpyrimidin-5-yl)-1H-indazol-1-yl)acetyl)-N-(6-bromo-4-(methoxymethyl)pyridin-2-yl)-5-methyl-2-azabicyclo[3.1.0]hexane-3-carboxamide]: the IC50 under setting [1] is less than 1000 nM.

As to `CC(=O)c1nn(CC(=O)N2[C@H](C(=O)Nc3cc(-c4ccccc4)cc(Br)n3)C[C@@]3(C)C[C@@H]23)c2ccc(-c3cnc(C)nc3)cc12` [Compound 547, (1R,3S,5R)-2-(2-(3-acetyl-5-(2-methylpyrimidin-5-yl)-1H-indazol-1-yl)acetyl)-N-(6-bromo-4-phenylpyridin-2-yl)-5-methyl-2-azabicyclo[3.1.0]hexane-3-carboxamide], the IC50 under setting [1] is less than 1000 nM.

Consider `CC(=O)c1nn(CC(=O)N2[C@H](C(=O)Nc3cc(CCc4ccccc4)cc(Br)n3)C[C@@]3(C)C[C@@H]23)c2ccc(-c3cnc(C)nc3)cc12` [Compound 548], for which the IC50 under setting [1] was less than 1000 nM.

For the compound `CCCCc1cc(Br)nc(NC(=O)[C@@H]2C[C@@]3(C)C[C@H]3N2C(=O)Cn2nc(C(C)=O)c3cc(-c4cnc(C)nc4)ccc32)c1` [Compound 549, (1R,3S,5R)-2-(2-(3-acetyl-5-(2-methylpyrimidin-5-yl)-1H-indazol-1-yl)acetyl)-N-(6-bromo-4-butylpyridin-2-yl)-5-methyl-2-azabicyclo[3.1.0]hexane-3-carboxamide], under setting [1], the IC50 was less than 1000 nM.

On to `CC(=O)c1nn(CC(=O)N2[C@H](C(=O)Nc3cc(C(F)(F)F)cc(Br)n3)C[C@@]3(C)C[C@@H]23)c2ccc(-c3cnc(C)nc3)cc12` [Compound 550, (1R,3S,5R)-2-(2-(3-acetyl-5-(2-methylpyrimidin-5-yl)-1H-indazol-1-yl)acetyl)-N-(6-bromo-4-(trifluoromethyl)pyridin-2-yl)-5-methyl-2-azabicyclo[3.1.0]hexane-3-carboxamide], for which, under setting [1], the IC50 was less than 1000 nM.

Take `CC(=O)c1nn(CC(=O)N2[C@H](C(=O)NCCC(C)(C)C)C[C@@]3(C)C[C@@H]23)c2ccc(-c3cnc(C)nc3)cc12` [Compound 552, (1R,3S,5R)-2-(2-(3-acetyl-5-(2-methylpyrimidin-5-yl)-1H-indazol-1-yl)acetyl)-N-(3,3-dimethylbutyl)-5-methyl-2-azabicyclo[3.1.0]hexane-3-carboxamide]: under setting [1], the IC50 is less than 1000 nM.

Take `CC(=O)c1nn(CC(=O)N2[C@H](C(=O)N[C@@H](C)c3ccccc3)C[C@@]3(C)C[C@@H]23)c2ccc(-c3cnc(C)nc3)cc12` [Compound 553, (1R,3S,5R)-2-(2-(3-acetyl-5-(2-methylpyrimidin-5-yl)-1H-indazol-1-yl)acetyl)-5-methyl-N-((S)-1-phenylethyl)-2-azabicyclo[3.1.0]hexane-3-carboxamide]: under setting [1], the IC50 was less than 1000 nM.

For the compound `CC(=O)c1nn(CC(=O)N2[C@H](C(=O)N[C@@H](C)COC(F)(F)F)C[C@@]3(C)C[C@@H]23)c2ccc(-c3cnc(C)nc3)cc12` [Compound 554, (1R,3S,5R)-2-(2-(3-acetyl-5-(2-methylpyrimidin-5-yl)-1H-indazol-1-yl)acetyl)-5-methyl-N-((S)-1-(trifluoromethoxy)propan-2-yl)-2-azabicyclo[3.1.0]hexane-3-carboxamide], under setting [1], the IC50 was less than 1000 nM.

For the compound `CC(=O)c1nn(CC(=O)N2[C@H](C(=O)Nc3cc(Cc4ccccc4)cc(Br)n3)C[C@@]3(C)C[C@@H]23)c2ccc(-c3cnc(C)nc3)cc12` [Compound 555, (1R,5R)-2-(2-(3-acetyl-5-(2-methylpyrimidin-5-yl)-1H-indazol-1-yl)acetyl)-N-(4-benzyl-6-bromopyridin-2-yl)-5-methyl-2-azabicyclo[3.1.0]hexane-3-carboxamide], the IC50 under setting [1] is less than 1000 nM.

As for `CC(=O)c1nn(CC(=O)N2[C@H](C(=O)Nc3cc(-c4ccccc4O)cc(Br)n3)C[C@@]3(C)C[C@@H]23)c2ccc(-c3cnc(C)nc3)cc12` [Compound 556, (1R,3S,5R)-2-(2-(3-acetyl-5-(2-methylpyrimidin-5-yl)-1H-indazol-1-yl)acetyl)-N-(6-bromo-4-(2-hydroxyphenyl)pyridin-2-yl)-5-methyl-2-azabicyclo[3.1.0]hexane-3-carboxamide], the IC50 under setting [1] was less than 1000 nM.

With `CC(=O)c1nn(CC(=O)N2[C@H](C(=O)Nc3cc(COCc4ccccc4)cc(Br)n3)C[C@@]3(C)C[C@@H]23)c2ccc(-c3cnc(C)nc3)cc12` [Compound 557, (1R,3S,5R)-2-(2-(3-acetyl-5-(2-methylpyrimidin-5-yl)-1H-indazol-1-yl)acetyl)-N-(4-6-bromopyridin-2-yl)-5-methyl-2-azabicyclo[3.1.0]hexane-3-carboxamide], the IC50 under setting [1] was less than 1000 nM.

Take `CC(=O)c1nn(CC(=O)N2[C@H](C(=O)N[C@H](C)c3ccccc3)C[C@@]3(C)C[C@@H]23)c2ccc(-c3cnc(C)nc3)cc12` [Compound 558, (1R,3S,5R)-2-(2-(3-acetyl-5-(2-methylpyrimidin-5-yl)-1H-indazol-1-yl)acetyl)-5-methyl-N-((R)-1-phenylethyl)-2-azabicyclo[3.1.0]hexane-3-carboxamide]: the IC50 under setting [1] is less than 1000 nM.

Take `CC(=O)c1nn(CC(=O)N2[C@H](C(=O)NC/C(F)=C(/C)c3ccccc3)C[C@@]3(C)C[C@@H]23)c2ccc(-c3cnc(C)nc3)cc12` [Compound 559, (1R,3S,5R)-2-(2-(3-acetyl-5-(2-methylpyrimidin-5-yl)-1H-indazol-1-yl)acetyl)-N-((E)-2-fluoro-3-phenylbut-2-en-1-yl)-5-methyl-2-azabicyclo[3.1.0]hexane-3-carboxamide]: the IC50 under setting [1] was less than 1000 nM.

Turning to `CC(=O)c1cn(CC(=O)N2[C@H](C(=O)NC/C(F)=C(/C)c3ccccc3)C[C@@]3(C)C[C@@H]23)c2cnc(-c3cnc(C)nc3)cc12` [Compound 560], under setting [1], the IC50 is less than 1000 nM.

For `CC(=O)c1nn(CC(=O)N2[C@H](C(=O)NC/C(F)=C(/C)c3ccccc3)C[C@@]3(C)C[C@@H]23)c2c(C)cc(-c3cnc(C)nc3)cc12` [Compound 561, (1R,3S,5R)-2-(2-(3-acetyl-7-methyl-5-(2 methylpyrimidin-5-yl)-1H-indazol-1-yl)acetyl)-N-((E)-2-fluoro-3-phenylbut-2-en-1-yl)-5-methyl-2-azabicyclo[3.1.0]hexane-3-carboxamide], the IC50 under setting [1] is less than 1000 nM.

Regarding `Cc1ncc(-c2ccc3c(c2)c(C(=O)NC(C)C)nn3CC(=O)N2[C@H](C(=O)Nc3nc(Br)ccc3C)C[C@@]3(C)C[C@@H]23)cn1` [Compound 562, 1-(2-((1R,3S,5R)-3-((6-bromo-3-methylpyridin-2-yl)carbamoyl)-5-methyl-2-azabicyclo[3.1.0]hexan-2-yl)-2-oxoethyl)-N-isopropyl-5-(2-methylpyrimidin-5-yl)-1H-indazole-3-carboxamide], under setting [1], the IC50 lay within 1000 to 10000 nM.

For `CCC(C)NC(=O)c1nn(CC(=O)N2[C@H](C(=O)Nc3nc(Br)ccc3C)C[C@@]3(C)C[C@@H]23)c2ccc(-c3cnc(C)nc3)cc12` (stereo partly drawn) [Compound 569, 1-(2-((1R,3S,5R)-3-((6-bromo-3-methylpyridin-2-yl)carbamoyl)-5-methyl-2-azabicyclo[3.1.0]hexan-2-yl)-2-oxoethyl)-N-(sec-butyl)-5-(2-methylpyrimidin-5-yl)-1H-indazole-3-carboxamide], the IC50 (Table 8, Factor D 80 nM, substrate Z-L-Lys-SBz, read-out: IC50) was 1000 to 10000 nM.

For the compound `CC(=O)c1nn(CC(=O)N2[C@H](C(=O)Nc3cc(CC(F)(F)F)cc(Br)n3)C[C@@]3(C)C[C@@H]23)c2ccc(-c3cnc(C)nc3)cc12` [Compound 572, (1R,3S,5R)-2-(2-(3-acetyl-5-(2-methylpyrimidin-5-yl)-1H-indazol-1-yl)acetyl)-N-(6-bromo-4-(2,2,2-trifluoroethyl)pyridin-2-yl)-5-methyl-2-azabicyclo[3.1.0]hexane-3-carboxamide], the IC50 under setting [1] was less than 1000 nM.

On to `CC(=O)c1nn(CC(=O)N2[C@H](C(=O)NCCOC(F)(F)F)C[C@@]3(C)C[C@@H]23)c2ccc(-c3cnc(C)nc3)cc12` [Compound 579, (1R,3S,5R)-2-(2-(3-acetyl-5-(2-methylpyrimidin-5-yl)-1H-indazol-1-yl)acetyl)-5-methyl-N-(2-(trifluoromethoxy)ethyl)-2-azabicyclo[3.1.0] hexane-3-carboxamide], for which the IC50 under setting [1] is less than 1000 nM.
